System: KRAS patient-derived spheroids with HUVEC/MSC, viability
Test: Anticancer human tumor 941728-121-R-J1-PDC patient-derived lung adenocarcinoma cell line growth inhibition [KRAS2]
Conditions: for IC50: curve of first compound; for viability, T/C: stronger effect = lower value
Summary of the method: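 Combination screen of spheroid viability in tumor-cell co-cultures with endothelial (HUVEC) and mesenchymal stem cell stroma. Each agent was tested in half-log dilutions, topping at clinical Cmax or at 10 microM without a known Cmax.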

[1] = second compound 0.1 µM, first compound 0.0316 µM
[2] = second compound 0.1 µM, first compound 0.1 µM
[3] = second compound 0.1 µM, first compound 0.316 µM
[4] = second compound 0.1 µM, first compound 1 µM
[5] = second compound 0.1 µM, first compound 3.16 µM
[6] = second compound 0.1 µM, first compound 10 µM
[7] = second compound 0.316 µM, first compound 0.0316 µM
[8] = second compound 0.316 µM, first compound 0.1 µM
[9] = second compound 0.316 µM, first compound 0.316 µM
[10] = second compound 0.316 µM, first compound 1 µM
[11] = second compound 0.316 µM, first compound 3.16 µM
[12] = second compound 0.316 µM, first compound 10 µM
[13] = second compound 1 µM, first compound 0.0316 µM
[14] = second compound 1 µM, first compound 0.1 µM
[15] = second compound 1 µM, first compound 0.316 µM
[16] = second compound 1 µM, first compound 1 µM
[17] = second compound 1 µM, first compound 3.16 µM
[18] = second compound 1 µM, first compound 10 µM
[19] = second compound 3.16 µM, first compound 0.0316 µM
[20] = second compound 3.16 µM, first compound 0.1 µM
[21] = second compound 3.16 µM, first compound 0.316 µM
[22] = second compound 3.16 µM, first compound 1 µM
[23] = second compound 3.16 µM, first compound 3.16 µM
[24] = second compound 3.16 µM, first compound 10 µM
[25] = second compound 10 µM, first compound 0.0316 µM
[26] = second compound 10 µM, first compound 0.1 µM
[27] = second compound 10 µM, first compound 0.316 µM
[28] = second compound 10 µM, first compound 1 µM
[29] = second compound 10 µM, first compound 3.16 µM
[30] = second compound 10 µM, first compound 10 µM
[31] = second compound 0.1 µM, first compound 0.01 µM
[32] = second compound 0.316 µM, first compound 0.01 µM
[33] = second compound 1 µM, first compound 0.01 µM
[34] = second compound 3.16 µM, first compound 0.01 µM
[35] = second compound 10 µM, first compound 0.01 µM
[36] = second compound 0.1 µM, first compound 0.00316 µM
[37] = second compound 0.316 µM, first compound 0.00316 µM
[38] = second compound 1 µM, first compound 0.00316 µM
[39] = second compound 3.16 µM, first compound 0.00316 µM
[40] = second compound 10 µM, first compound 0.00316 µM
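Also: spheroids exposed to agents for seven days before readout.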

Row | SMILES | IC50 (second compound 0.1 µM) [µM] | IC50 (second compound 0.316 µM) [µM] | IC50 (second compound 1 µM) [µM] | IC50 (second compound 3.16 µM) [µM] | IC50 (second compound 10 µM) [µM] | viability, T/C [1] [%] | viability, T/C [2] [%] | viability, T/C [3] [%] | viability, T/C [4] [%] | viability, T/C [7] [%] | viability, T/C [8] [%] | viability, T/C [9] [%] | viability, T/C [10] [%] | viability, T/C [13] [%] | viability, T/C [14] [%] | viability, T/C [15] [%] | viability, T/C [19] [%] | viability, T/C [20] [%] | viability, T/C [25] [%] | viability, T/C [26] [%] | further results
1 | CC(C)NCC(C(=O)N1CCN(c2ncnc3c2C(C)CC3O)CC1)c1ccc(Cl)cc1 (stereo not given) + COc1cc2nc(C)nc(NC(C)c3cc(N)cc(C(F)(F)F)c3)c2cc1OC1CCOC1 | 0.0327 | < 0.0316 | < 0.0316 | < 0.0316 | < 0.0316 | 49.7 | 46.5 | 34.1 | 23.4 | 44 | 41.4 | 32.5 | 21.5 | 40.4 | 34.8 | 29.7 | 35.1 | 35.2 | 13.4 | 9.39 | viability, T/C [5]: 11.8%; viability, T/C [6]: 8.21%; viability, T/C [11]: 10.3%; viability, T/C [12]: 11.1%; viability, T/C [16]: 23.1%; viability, T/C [17]: 10.3%; viability, T/C [18]: 1.68%; viability, T/C [21]: 36.7%; viability, T/C [22]: 13%; viability, T/C [23]: 5.96%; viability, T/C [24]: 5.42%; viability, T/C [27]: 3.04%; viability, T/C [28]: 1.04%; viability, T/C [29]: 0.52%; viability, T/C [30]: 0.66%
2 | CC1COCCN1c1cc(-c2ccnn2C)c2ccnc(-c3ccn[nH]3)c2n1 (stereo not given) + COc1cc2nc(C)nc(NC(C)c3cc(N)cc(C(F)(F)F)c3)c2cc1OC1CCOC1 | 0.0258 | 0.0307 | 0.0145 | < 0.01 | < 0.01 | 49.5 | 39.9 | 33.9 | 26.8 | 49.5 | 36.8 | 27.2 | 21.9 | 42.7 | 32.9 | 27.9 | 32 | 25.4 | 21.6 | 21.9 | viability, T/C [31]: 56%; viability, T/C [5]: 20.3%; viability, T/C [32]: 58.2%; viability, T/C [11]: 23.6%; viability, T/C [33]: 53.6%; viability, T/C [16]: 22.5%; viability, T/C [17]: 18.6%; viability, T/C [34]: 36.3%; viability, T/C [21]: 18.2%; viability, T/C [22]: 8.31%; viability, T/C [23]: 15.9%; viability, T/C [35]: 17.4%; viability, T/C [27]: 11.4%; viability, T/C [28]: 9.32%; viability, T/C [29]: 6.09%
3 | CCN1CCN(Cc2ccc(Nc3ncc(F)c(-c4cc(F)c5nc(C)n(C(C)C)c5c4)n3)nc2)CC1 + COc1cc2nc(C)nc(NC(C)c3cc(N)cc(C(F)(F)F)c3)c2cc1OC1CCOC1 | < 0.00316 | < 0.00316 | < 0.00316 | < 0.00316 | < 0.00316 | 34.2 | 36.8 | 42 | 43.3 | 28.8 | 31.7 | 35.3 | 40.8 | 28.5 | 27.7 | 22.1 | 21.1 | 19.5 | 2.12 | 0.46 | viability, T/C [36]: 45.9%; viability, T/C [31]: 41%; viability, T/C [37]: 44.2%; viability, T/C [32]: 35.3%; viability, T/C [38]: 27.8%; viability, T/C [33]: 28.7%; viability, T/C [16]: 32.9%; viability, T/C [39]: 23.3%; viability, T/C [34]: 22.7%; viability, T/C [21]: 15.6%; viability, T/C [22]: 14.5%; viability, T/C [40]: 17.2%; viability, T/C [35]: 6.08%; viability, T/C [27]: 0.87%; viability, T/C [28]: 0.85%
4 | CCNC(=O)CC1N=C(c2ccc(Cl)cc2)c2cc(OC)ccc2-n2c(C)nnc21 (stereo not given) + COc1cc2nc(C)nc(NC(C)c3cc(N)cc(C(F)(F)F)c3)c2cc1OC1CCOC1 | 0.0362 | < 0.0316 | < 0.0316 | < 0.0316 | < 0.0316 | 49.5 | 48.2 | 30.6 | 16.1 | 46.2 | 42.6 | 34.4 | 12.6 | 45.1 | 40.7 | 29.2 | 38.3 | 33 | 20.3 | 13.9 | viability, T/C [5]: 11.1%; viability, T/C [6]: 9.43%; viability, T/C [11]: 9.51%; viability, T/C [12]: 9.32%; viability, T/C [16]: 8.81%; viability, T/C [17]: 7.25%; viability, T/C [18]: 6.02%; viability, T/C [21]: 23.5%; viability, T/C [22]: 8.14%; viability, T/C [23]: 7.37%; viability, T/C [24]: 8.71%; viability, T/C [27]: 14.2%; viability, T/C [28]: 3.3%; viability, T/C [29]: 2.65%; viability, T/C [30]: 1.91%
5 | Cn1nccc1Nc1nccc(-c2cc3c(s2)C(C)(C)N(CCN2CCOCC2)C3=O)n1 + COc1cc2nc(C)nc(NC(C)c3cc(N)cc(C(F)(F)F)c3)c2cc1OC1CCOC1 | 0.116 | 0.145 | 0.0586 | < 0.0316 | < 0.0316 | 60.1 | 52.7 | 43.7 | 39.5 | 64.1 | 55.3 | 38.9 | 38.6 | 55.9 | 44.3 | 41.1 | 46.5 | 46.7 | 30.7 | 30.2 | viability, T/C [5]: 39.2%; viability, T/C [6]: 37.8%; viability, T/C [11]: 39.1%; viability, T/C [12]: 33.9%; viability, T/C [16]: 37.5%; viability, T/C [17]: 38.4%; viability, T/C [18]: 35.1%; viability, T/C [21]: 40.5%; viability, T/C [22]: 40.6%; viability, T/C [23]: 36.3%; viability, T/C [24]: 31.5%; viability, T/C [27]: 22.4%; viability, T/C [28]: 20.4%; viability, T/C [29]: 15%; viability, T/C [30]: 11.2%
6 | Cn1ncnc1[C@H]1c2n[nH]c(=O)c3cc(F)cc(c23)N[C@@H]1c1ccc(F)cc1 + COc1cc2nc(C)nc(NC(C)c3cc(N)cc(C(F)(F)F)c3)c2cc1OC1CCOC1 | > 0.1 | < 0.000316 | < 0.000316 | < 0.000316 | < 0.000316 | 66.2 | 58.8 |  |  | 47.6 | 48 |  |  | 33.5 | 28.7 |  | 22.1 | 23.6 | 9.61 | 10.3 | viability, T/C (second compound 0.1 µM, first compound 0.000316 µM): 61.1%; viability, T/C (second compound 0.1 µM, first compound 0.001 µM): 51.9%; viability, T/C [36]: 47.1%; viability, T/C [31]: 52.2%; viability, T/C (second compound 0.316 µM, first compound 0.000316 µM): 48.9%; viability, T/C (second compound 0.316 µM, first compound 0.001 µM): 41.8%; viability, T/C [37]: 36.7%; viability, T/C [32]: 36.8%; viability, T/C (second compound 1 µM, first compound 0.000316 µM): 41.6%; viability, T/C (second compound 1 µM, first compound 0.001 µM): 31.4%; viability, T/C [38]: 30.7%; viability, T/C [33]: 25.6%; viability, T/C (second compound 3.16 µM, first compound 0.000316 µM): 36.6%; viability, T/C (second compound 3.16 µM, first compound 0.001 µM): 34.4%; viability, T/C [39]: 32.1%; viability, T/C [34]: 27.4%; viability, T/C (second compound 10 µM, first compound 0.000316 µM): 14.5%; viability, T/C (second compound 10 µM, first compound 0.001 µM): 11.8%; viability, T/C [40]: 13.1%; viability, T/C [35]: 8%

From PubChem BioAssay AID1963862 (Molecular Pharmacology Branch, DTP, NCI, 2024)
